From patent US20170074857A1, “MEDICATION ADHERENCE MONITORING DEVICE” (UNIVERSITY OF FLORIDA RESEARCH FOUNDATION, INC., priority 2014, published 2017)

Assay: Example 4a: noncompartmental pharmacokinetics of exhaled 2-butanone and 2-pentanone by mGC;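 for TThresh: time until breath level first exceeds the mGC detection limit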
Type: in vivo, human
Text: Test Materials. […] 2-butanol was purchased from Penta Manufacturing Company (Fairfield, N.J.). 2-pentanol and L-carvone were purchased from Sigma-Aldrich (St. Louis, Mo.). […] 2-pentanone was also used as a taggant, but we hypothesized that its inherent volatility would allow exhalation without need for metabolism. L-carvone tastes like spearmint and was used as a flavor mask. All capsules were filled on the day of the experiment.
Subject Enrollment and Protocol. This protocol (20100140) was approved by the Western Institutional Review Board (Olympia, Wash.). Healthy subjects (n=5) aged >18 years of age and of either sex were recruited. Informed, written consent was obtained from all enrolled subjects. The study consisted of a single experimental limb with six replicates per subject. Therefore, for five subjects with six replicated experiments, a total of 30 studies were performed. Subjects were free to eat ad lib prior to participation in the study. At commencement of the experiments, subjects provided a baseline breath sample (designated time 0 min) into the mGC for analysis as described subsequently. Then, subjects orally consumed the previously detailed capsule with 177 mL (6 ounces) of water. Following ingestion, we observed the breath concentration-time relationships of 2-butanone and 2-pentanone by collecting single-breath samples at times 5, 10, 15, 20, 30, 45, and 60 min. After 60 min, the experiment was concluded. After at least one day's respite, subjects returned for replicate experiments on five additional occasions.
2-Butanone and 2-Pentanone Measurement in Human Breath by mGC. Breath specimens were analyzed “real-time” to measure the concentrations of 2-butanone and 2-pentanone using the mGC (Xhale, Inc. Gainesville, Fla.) as previously described. In brief, a mouthpiece (FST®, Intoximeters, Inc., St. Louis, Mo.) was attached to the inlet of the mGC. A 15 mL side-stream sample was aspirated during a single exhalation over 5 s through this inlet port to a room temperature concentrator trap containing 4 mg of Tenax TA (Sigma-Aldrich). The trap temperature was then increased to 130° C. and the volatile components transferred to a 5 m by 0.53 mm internal diameter, metal clad, BAC-1 capillary column (Restek Corp, Bellefonte, Pa.) operated at 55° C. The effluent from the column then flowed to the metal oxide detectors. Separation of the markers from other volatile organic compounds present in the sample (i.e., acetone and isoprene) occurred in approximately 2 min. Data were tabulated and graphically presented over time to determine the concentrations of 2-butanone and 2-pentanone in a given breath specimen. Data are reported in parts-per-billion (ppb) based on molar fractions to account for differing ambient atmospheric pressures and temperature.
Pharmacokinetic Analysis. Analyte breath concentrations reported as ppb were converted to ng/mL by multiplying each concentration by the molecular weight of the respective molecule to allow proper functioning of conventional PK software for noncompartmental analysis (WinNonlin 5.2, Pharsight Corporation, St. Louis, Mo.). Estimates were generated for the following PK parameters (abbreviation, unit): first-order elimination rate constant (Lambda Z, min-1), half-life of elimination (Half-life, min), maximal drug concentration (CMAX, μg/mL), time at maximal drug concentration (TMAX, min), area under concentration versus time curve from zero to the last time point (AUC0-LAST, min*μg/mL), area under concentration versus time curve from zero to infinity (AUC0-∞, min*μg/mL), percentage of area under concentration versus time curve from zero to infinity, which is extrapolated from AUC0-t (% AUC Extrap) and the mean residence time (MRT, min). The area under concentration versus time curve (AUC) was calculated using the linear trapezoidal rule. All values are reported separately for each subject as mean±standard deviation following conversion from ng/mL to ppb. […]

For `CCC(C)=O` [Formulation 2-butanone, 2-butanone], the “% AUC Extrap” value (30 observations) was 17.9%, the AUC0-8 (30 observations) was 51190 min · ppb and the AUC0-LAST (30 observations) was 41820 min · ppb. For the same compound, the CMAX (30 observations) was 1376 ppb, the Half-life (30 observations) was 216 min and the LAMBDA_Z (30 observations) was 0.036 min⁻¹. For the same compound, the MRT0-last (30 observations) was 25.7 min, the TMAX (30 observations) was 17.8 min and the “% AUC Extrap” value (REPLICATE 1) was 41.3%. The AUC0-LAST (REPLICATE 1) was 53278 min · ppb, the “AUC0-∞” value (REPLICATE 1) was 64618 min · ppb and the CMAX (REPLICATE 1) was 1793 ppb. For the same compound, the Half-life (REPLICATE 1) was 21.1 min, the LAMBDA_Z (REPLICATE 1) was 0.036 min⁻¹ and the MRT0-last (REPLICATE 1) was 24.4 min. The TMAX (REPLICATE 1) was 15.0 min, the TThresh (REPLICATE 1, same 5 subjects) was 5.0 min and the “% AUC Extrap” value (REPLICATE 2) was 47.3%. For the same compound, the AUC0-LAST (REPLICATE 2) was 44693 min · ppb, the “AUC0-∞” value (REPLICATE 2) was 58070 min · ppb and the CMAX (REPLICATE 2) was 1361 ppb. It also gave a Half-life (REPLICATE 2) of 24.1 min, an LAMBDA_Z (REPLICATE 2) of 0.033 min⁻¹ and an MRT0-last (REPLICATE 2) of 28.3 min. The TMAX (REPLICATE 2) was 21.0 min, the TThresh (REPLICATE 2) was 7.0 min and the “% AUC Extrap” value (REPLICATE 3) was 31.3%. For the same compound, the AUC0-LAST (REPLICATE 3) was 36508 min · ppb, the “AUC0-∞” value (REPLICATE 3) was 42226 min · ppb and the CMAX (REPLICATE 3) was 1175 ppb. The Half-life (REPLICATE 3) was 16.4 min, the LAMBDA_Z (REPLICATE 3) was 0.048 min⁻¹ and the MRT0-last (REPLICATE 3) was 24.8 min. For the same compound, the TMAX (REPLICATE 3) was 17.0 min, the TThresh (REPLICATE 3) was 6.0 min and the “% AUC Extrap” value (REPLICATE 4) was 37.3%. The AUC0-LAST (REPLICATE 4) was 44467 min · ppb, the “AUC0-∞” value (REPLICATE 4) was 52141 min · ppb and the CMAX (REPLICATE 4) was 1449 ppb. It also gave a Half-life (REPLICATE 4) of 21.2 min, an LAMBDA_Z (REPLICATE 4) of 0.038 min⁻¹ and an MRT0-last (REPLICATE 4) of 23.9 min. For the same compound, the TMAX (REPLICATE 4) was 19.0 min, the TThresh (REPLICATE 4) was 6.0 min and the “% AUC Extrap” value (REPLICATE 5) was 54.6%. The AUC0-LAST (REPLICATE 5) was 37792 min · ppb, the “AUC0-∞” value (REPLICATE 5) was 491783 min · ppb and the CMAX (REPLICATE 5) was 1227 ppb. The Half-life (REPLICATE 5) was 27.7 min, the LAMBDA_Z (REPLICATE 5) was 0.026 min⁻¹ and the MRT0-last (REPLICATE 5) was 26.6 min. The TMAX (REPLICATE 5) was 15.0 min, the TThresh (REPLICATE 5) was 7.0 min and the “% AUC Extrap” value (REPLICATE 6) was 39.2%. The AUC0-LAST (REPLICATE 6) was 34184 min · ppb, the “AUC0-∞” value (REPLICATE 6) was 40905 min · ppb and the CMAX (REPLICATE 6) was 1251 ppb. For the same compound, the Half-life (REPLICATE 6) was 18.9 min, the LAMBDA_Z (REPLICATE 6) was 0.037 min⁻¹ and the MRT0-last (REPLICATE 6) was 26.5 min. For the same compound, the TMAX (REPLICATE 6) was 20.0 min, the TThresh (REPLICATE 6) was 6.0 min and the “% AUC Extrap” value (SUBJECT 1) was 22.6%. The AUC0-LAST (SUBJECT 1) was 45298 min · ppb, the “AUC0-∞” value (SUBJECT 1) was 59106 min · ppb and the CMAX (SUBJECT 1) was 1297 ppb. For the same compound, the Half-life (SUBJECT 1) was 22.6 min, the LAMBDA_Z (SUBJECT 1) was 0.033 min⁻¹ and the MRT0-last (SUBJECT 1) was 29.3 min. The TMAX (SUBJECT 1) was 21.7 min, the TThresh (SUBJECT 1, six replicates) was 6.7 min and the “% AUC Extrap” value (SUBJECT 2) was 19.2%. For the same compound, the AUC0-LAST (SUBJECT 2) was 66466 min · ppb, the “AUC0-∞” value (SUBJECT 2) was 82628 min · ppb and the CMAX (SUBJECT 2) was 1926 ppb. It also gave a Half-life (SUBJECT 2) of 20.6 min, an LAMBDA_Z (SUBJECT 2) of 0.034 min⁻¹ and an MRT0-last (SUBJECT 2) of 27.7 min. For the same compound, the TMAX (SUBJECT 2) was 20.8 min, the TThresh (SUBJECT 2) was 5.0 min and the “% AUC Extrap” value (SUBJECT 3) was 23.2%. For the same compound, the AUC0-LAST (SUBJECT 3) was 19608 min · ppb, the “AUC0-∞” value (SUBJECT 3) was 25623 min · ppb and the CMAX (SUBJECT 3) was 1021 ppb. The Half-life (SUBJECT 3) was 30.7 min, the LAMBDA_Z (SUBJECT 3) was 0.024 min⁻¹ and the MRT0-last (SUBJECT 3) was 22.7 min. The TMAX (SUBJECT 3) was 11.7 min, the TThresh (SUBJECT 3) was 5.8 min and the “% AUC Extrap” value (SUBJECT 4) was 12.6%. The AUC0-LAST (SUBJECT 4) was 68147 min · ppb, the “AUC0-∞” value (SUBJECT 4) was 77593 min · ppb and the CMAX (SUBJECT 4) was 2238 ppb. The Half-life (SUBJECT 4) was 16.4 min, the LAMBDA_Z (SUBJECT 4) was 0.043 min⁻¹ and the MRT0-last (SUBJECT 4) was 26.2 min. The TMAX (SUBJECT 4) was 18.3 min, the TThresh (SUBJECT 4) was 5.8 min and the “% AUC Extrap” value (SUBJECT 5) was 12.0%. For the same compound, the AUC0-LAST (SUBJECT 5) was 9581 min · ppb, the “AUC0-∞” value (SUBJECT 5) was 10999 min · ppb and the CMAX (SUBJECT 5) was 398 ppb. For the same compound, the Half-life (SUBJECT 5) was 17.5 min, the LAMBDA_Z (SUBJECT 5) was 0.046 min⁻¹ and the MRT0-last (SUBJECT 5) was 22.9 min. The TMAX (SUBJECT 5) was 16.7 min, the TThresh (SUBJECT 5) was 7.5 min and the “observed CMAX range” value (across subjects) was 398-2,238 ppb. For the same compound, the “half life in breath” value (after oral 2-butanol (40 and 60 mg) to humans) was 11 to 22 min and the TThresh (mean of 30 observations (5 subjects, 6 replicates), oral 2-butanol 60 mg + 2-pentanone 60 mg) was 6.2 min.
